Consider three molecules from US7405037B2, “Methods and tools for detecting collagen degradation” (Lonza Walkersville, Inc., priority 2004, dated 2008).

For assay [1], the system named is primary human osteoclasts. In words: OsteoLyse assay: release of europium chelate-labeled collagen fragments by osteoclasts. Type of assay: cell-based. On the set-up: inhibition of bone matrix degradation: dose or concentration left out as unconfirmed. The protocol:
Remove a 96-well cell culture plate to which europium chelate-labeled collagen (e.g., collagen labeled with Eu^3+-N′-(p-isothiocyanatobenzyl) diethylenetriamine-N^1,N^2,N^3-tetraacetic acid) is covalently bound from 4° C. storage and let it warm to room temperature. Seed mature osteoclasts or osteoclast precursors (human or non-human) onto the cell culture plate in medium containing M-CSF and soluble RANK ligand. If using Cambrex's primary human osteoclast precursors (Poietics™ Human Osteoclast Precursors), seed the cells at a density of 10,000 cells/well in osteoclast precursor differentiation medium (Cambrex product # PT-8001). See Example 2 for a detailed protocol for the culture of primary human osteoclast precursors (Cambrex product # 2T-110). Precursors cultured in the absence of soluble RANK ligand can serve as “undifferentiated” controls.
Culture the cells for 6 days and then renew the cell culture medium. Fresh medium preferably contains the same concentrations of M-CSF and soluble RANK ligand as in the original day 0 medium. Unused control and differentiation media from day 0 can be frozen (on day 0) and used for the day 6 medium changes.
At least two different types of protocols can be used. If the assay is used to measure the effect of a test compound on differentiation of the osteoclast precursor, the test compound typically is added at day 0 and removed at day 6. However, if the assay is used to measure the effect of a test compound on mature osteoclast function (i.e., bone matrix collagen degradation), the test compound typically is added at day 6 with the new medium addition.
The cell culture medium can be sampled at any time after the medium change. Because a very small volume (5 to 10 μl) of medium is sampled, it is very easy to do time-course studies by repeatedly sampling the medium on sequential days. Medium volumes greater than 10 μl are unnecessary and, because an excess of fluorophore releasing reagent with respect to sample is desired, actually may lead to inefficient counting of the fluorophore as the ratio of fluorophore releasing reagent to sample decreases. […]
Determine the fluorescence of each well of the assay vessel in a time-resolved fluorescence fluorimeter (e.g., a Wallac Victor, with excitation at 340 nm and emission at […]) over a […] time period after an initial delay of 400 μseconds.
Primary human osteoclast precursors were seeded onto europium chelate-labeled collagen covalently bound to a maleic anhydride-derivatized polystyrene plate (Pierce Reacti-Bind™) at 10,000 cells/well and cultured in differentiation medium containing (1) no calcitonin, (2) calcitonin added only at day 5, or (3) calcitonin added on both days 0 and 5. Ten μl samples of culture media were counted after a total of 6 days. […]

Assay [2] has as its system primary human osteoclast precursors. In words: TRAP stain (multinucleated TRAP-positive cells/well). The assay is classed as cell-based. The protocol:
Primary human osteoclast precursors were seeded onto europium chelate-labeled collagen covalently bound to a maleic anhydride-derivatized polystyrene plate at 10,000 cells/well and cultured in medium containing soluble RANK ligand with and without interferon γ. After 9 days, cell culture media were assayed for fluorescent collagen peptides as described in Example 1. Cells in the plate were subsequently stained for TRAP (Sigma # 386-A).
In another experiment, osteoclast precursors were cultured in differentiation medium with and without different concentrations of alendronate. After 7 days the media were renewed and, after an additional 3 days, the cell culture media were sampled as described in Example 1. Cells in the plate were subsequently stained for TRAP (Sigma # 386-A).

For another assay, the system named is osteoclast precursors. The assay is described as follows: Osteoclast-mediated degradation of covalently bound FITC-labeled collagen (DQ collagen). The assay is classed as cell-based, human. The settings on record: 1 ng/ml; days 5, 7 and 9 of culture; FITC-labeled bovine type I collagen. The protocol:
FITC-labeled bovine type I collagen (DQ collagen, Molecular Probes, Inc.) was covalently bound to the surface of a maleic anhydride-derivatized 96-well tissue culture plate. Osteoclast precursors were cultured, with and without differentiation, in the plate as described in Example 2. Interferon γ (1 ng/ml) was added to some wells. At days 5, 7 and 9 of culture, 10 μl samples of each well were collected and added to 200 μl phosphate-buffered saline and counted in a fluorimeter (485/535 nm).

[3] abbreviates: 9 days of culture, medium with soluble RANK ligand.

No end group written: not given here.

As to “interferon γ [cytokine added to osteoclast precursor cultures]”, the “IC50, percent inhibition relative to controls, OsteoLyse assay” value in assay [1] (setting [3]) is on record as “approximately 0.1 ng/ml”. Further, the “IC50, percent inhibition relative to controls, TRAP assay” value in assay [2] (setting [3]) was “approximately 0.1 ng/ml”. Further, the “inhibition of osteoclast-mediated collagen degradation” value in the assay on osteoclast precursors is reported as “completely inhibited”.

Consider “calcitonin (CGNLSTCMLGTYTQDFNKFHTFPQTAIGVGAP; ends and bridges not checked; cysteine pairing not given here; UniProt P01258 85-116, looked up)”, for which, in assay [1] (calcitonin added on days 0 and 5 (prior exposure on day 0)), the “effect on resorptive activity of the osteoclasts” value is listed as “little effect”. For the same molecule, in assay [1] (calcitonin for 24 hours (added day 5 of culture), counted after 6 days), the “inhibition of bone matrix degradation” value stood at 88%.

Regarding `NCCCC(O)(P(=O)(O)O)P(=O)(O)O` [alendronate], the IC50 in assay [1] (Osteoclast, OsteoLyse assay, primary human osteoclasts, read-out: IC50, in vitro inhibition of bone resorption) is about 2000 nM. Besides, in assay [2] (different concentrations, medium renewed after 7 days, 3 additional days), the “inhibition of differentiation of osteoclast precursors (multinucleated TRAP-positive osteoclasts)” value is listed as “did not inhibit”.

As a reminder, the IC50 is the midpoint of a concentration-inhibition curve.
